Data as given in patent US7423172B2 (Laboratorios Salvat, S.A., priority 2004, dated 2008).

Legend:
[1] = target: T1, GAL4 DNA binding domain fused to the PPARγ LBD (Homo sapiens, UniProt P37231); assay: LBD-hPPARs transactivation assay (GAL4-luciferase reporter in COS-7 cells); type: cell-based; details: 48 h
T1 construct: expressed in transfected cells; host or cells: COS-7
T1 sequence (P37231 238-503 limits assumed): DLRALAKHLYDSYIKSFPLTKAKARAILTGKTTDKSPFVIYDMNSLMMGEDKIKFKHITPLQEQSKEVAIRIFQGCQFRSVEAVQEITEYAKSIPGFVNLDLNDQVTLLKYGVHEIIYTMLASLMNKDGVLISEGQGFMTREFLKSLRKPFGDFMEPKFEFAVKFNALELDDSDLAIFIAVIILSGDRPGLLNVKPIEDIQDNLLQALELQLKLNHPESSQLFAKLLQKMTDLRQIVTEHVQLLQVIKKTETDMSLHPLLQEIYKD
Description: LBD-hPPARs Transactivation Assay
COS-7 cells were cultivated in 24-well plates and transfected with the pFACMV plasmids that encode the chimeric proteins containing the GAL4 DNA binding domain fused to the PPARγ LBD. The reporter plasmid for the foregoing constructions was pFR-Luc, which contains five repetitions of the GAL4-response element in front of a promoter that controls the transcription of the luciferase gene. Lipofectamine was used as a transfection agent. The plasmids of the chimeric receptors and the reporter gene were inserted in the cells by transitory transfection in COS-7 cells in culture.

GST-hPPARγ2 = target: T2, GST-hPPARγ2 (Homo sapiens, UniProt P37231); assay: PPARγ2 binding assay ([3H]BRL-49853 displacement); details: GST-hPPARγ2, [3H]BRL-49853 100 nM, 3 h at 4° C.; read-out: Affinity PPARγ
T2 construct: the complete cDNA of the human PPAR was cloned into pGEX4T2; made in house; host or cells: Escherichia coli BL21 (DE3)
T2 sequence (P37231 1-505): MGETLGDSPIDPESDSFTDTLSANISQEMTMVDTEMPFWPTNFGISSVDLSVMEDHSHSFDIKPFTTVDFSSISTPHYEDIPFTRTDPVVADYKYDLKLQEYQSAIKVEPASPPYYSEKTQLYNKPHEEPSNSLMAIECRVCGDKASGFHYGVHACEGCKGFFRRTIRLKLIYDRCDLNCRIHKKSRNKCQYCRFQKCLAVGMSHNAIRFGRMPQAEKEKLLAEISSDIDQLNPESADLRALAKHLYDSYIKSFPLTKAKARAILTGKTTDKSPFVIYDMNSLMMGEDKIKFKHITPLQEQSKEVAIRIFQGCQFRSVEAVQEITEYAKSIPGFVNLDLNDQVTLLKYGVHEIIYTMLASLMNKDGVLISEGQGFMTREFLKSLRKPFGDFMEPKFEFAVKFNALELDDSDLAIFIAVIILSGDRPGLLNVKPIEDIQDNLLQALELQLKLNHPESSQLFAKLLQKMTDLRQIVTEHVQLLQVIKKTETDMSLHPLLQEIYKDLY
Experimental: The cDNA encoding for the open reading frame of the hPPARγ2 was amplified by PCR (polymerase chain reaction) and inserted in the plasmid pGEX-4T-2. This construction (pGEX-hPPARγ) was introduced into E. coli where it was overexpressed and semipurified as a fusion protein with glutathione S-transferase (GST) (Elbrecht et al., J. Biol. Chem. 1999, 274, 7913-7922). The binding of the compounds to the GST-hPPARγ2 s was determined by modifications in the method described by Lehmann et al. (J. Biol. Chem. 1995, 270, 12953-12957). The receptors (2.5 μg) were incubated in 96-well plates in the presence or in the absence of the products with [^3H]BRL-49853 (100 nM) for 3 h at 4° C., in a final volume of 200 μL of buffer Tris-HCl 10 mM pH:8.0, containing KCl 50 mM and DTT 10 mM. Non-specific binding was determined in the presence of BRL49853 100 μM. The reaction mixture was transferred to a Multiscreen Durapore (Millipore) microplate containing glutathione-Sepharose 4B in every well. The reaction mixture was left to incubate with the resin during 10 min, and then centrifuged at 735 g during 2 min. To dissociate the receptor bound to the resin, reduced glutathione 10 mM is added and incubated during 10 min. The receptor was eluted by centrifugation. Then, scintillation liquid was added to the elution and the contained radioactivity was quantified by liquid scintillation spectroscopy (Microbeta Wallac, Perkin Elmer).
The human PPAR cDNA was amplified through RT-PCR. For hPPARγ2, RNA was obtained from human white adipose tissue. Each amplified fragment was cloned into pBluescript (Stratagene®) and sequenced. One clone for each construction was selected and used as template for further subcloning and PCR amplifications.
GST-Fused Protein Construction
To generate this chimeric protein, the complete cDNA of the human PPAR was cloned into pGEX4T2 (Amersham Biosciences). The fragment was obtained from the pBluescript-cDNAs clones digested with endonucleases. To assess the plasmid identity and to ensure the in-phase cloning of the proteins, pGEX construction was sequenced. GST-hPPARγ2 fusion protein was generated in Escherichia coli (BL21 strain DE3). Cells were cultured in LB medium to a density of A600=1.6 odu, and induced for overexpression by addition of isopropyl-1-thio-β-D-galactopyranoside (IPTG)-induced cultures to a final concentration of 0.5 mM. The IPTG-induced cultures were grown at room temperature o/n, before cells were harvested by centrifugation at 5000 g for 15 min. After sonication, the GST-fusion protein was purified from the cell pellet using glutathione-Sepharose beads, following the procedure recommended by the manufacturer (Amersham Pharmacia Biotech). Excess of gluthatione was removed o/n by dyalisis at 4° C. Receptor purity was visualized by SDS-PAGE and protein content was determined by Bradford method. Receptor aliquots were stored at −80° C. until use.

Structure (SMILES) | Functional activity PPARγ [1] | Ki (GST-hPPARγ2)
CCC(=O)N(CCOc1ccc(C[C@H](Nc2ccccc2C(=O)c2ccccc2)C(=O)O)cc1)c1ccc(Cl)cc1 [I_121] | ANTAGONIST | 500 to 1500 nM
C=CC(=O)N(CCCOc1ccc(C[C@H](Nc2ccccc2C(=O)c2ccccc2)C(=O)O)cc1)c1ccc(Cl)cc1 [I_128, (S)-3-(4-{3-[Acryloyl-(4-chlorophenyl)-amino]propoxy}phenyl)-2-(2-benzoylphenylamino)propionic acid] | – | 500 to 1500 nM
Cc1ccc(N(CCOc2ccc(C[C@H](Nc3ccccc3C(=O)c3ccccc3)C(=O)O)cc2)C(=O)C(C)C)cc1 [I_149, (S)-2-(2-Benzoylphenylamino)-3-{4-[2-(isobutyryl-p-tolylamino)ethoxy]-phenyl}propionic acid] | – | > 1500 nM
O=C(c1ccccc1)c1ccccc1N[C@@H](Cc1ccc(OCCCN(Cc2ccccc2)C(=O)Cc2cccnc2)cc1)C(=O)O [I_198, (S)-2-(2-Benzoylphenylamino)-3-(4-{3-[benzyl-(2-pyridin-3-ylacetyl)-amino]propoxy}phenyl)propionic acid] | PARTIAL AGONIST | 500 to 1500 nM
O=C(c1ccccc1)c1ccccc1N[C@@H](Cc1ccc(OCCN(Cc2ccccc2F)c2ccccc2Cl)cc1)C(=O)O [I_379, (S)-2-(2-Benzoylphenylamino)-3-(4-{2-[(2-chlorophenyl)-(2-fluorobenzyl)-amino]ethoxy}phenyl)propionic acid] | – | 500 to 1500 nM
COc1cccc(CN(CCCOc2ccc(C[C@H](Nc3ccccc3C(=O)c3ccccc3)C(=O)O)cc2)c2ccccc2)c1 [I_391, (S)-2-(2-Benzoylphenylamino)-3-(4-{3-[(3-methoxybenzyl)phenylamino]-propoxy}phenyl)propionic acid] | – | 500 to 1500 nM
O=C(c1ccccc1)c1ccccc1N[C@@H](Cc1ccc(OCCCN(Cc2ccccc2)CC2CC2)cc1)C(=O)O [I_418, (S)-2-(2-Benzoylphenylamino)-3-{4-[3-(benzylcyclopropylmethylamino)-propoxy]phenyl}propionic acid] | PARTIAL AGONIST | 500 to 1500 nM
CC(=O)N(CCOc1ccc(C[C@H](Nc2ccccc2C(=O)c2ccccc2)C(=O)O)cc1)c1ccc2ccccc2c1 [I_438, (S)-3-{4-[2-(Acetylnaphthalen-2-ylamino)ethoxy]phenyl}-2-(2-benzoylphenylamino)propionic acid] | – | 500 to 1500 nM
C/C=C/C(=O)N(CCOc1ccc(C[C@H](Nc2ccccc2C(=O)c2ccccc2)C(=O)O)cc1)c1cccc(SC)c1 [I_440, (S)-2-(2-Benzoylphenylamino)-3-(4-{2-[but-2-(E)-enoyl-(3-methylsulfanylphenyl)amino]ethoxy}-phenyl)propionic acid] | – | 500 to 1500 nM
COCCC(=O)N(CCOc1ccc(C[C@H](Nc2ccccc2C(=O)c2ccccc2)C(=O)O)cc1)Cc1ccccc1 [I_469, (S)-2-(2-Benzoylphenylamino)-3-(4-{2-[benzyl-(3-methoxypropionyl)-amino]ethoxy}phenyl)propionic acid] | – | 500 to 1500 nM

Second part, the compound after the results:

Functional activity PPARγ [1] | Ki (GST-hPPARγ2) | Structure (SMILES)
– | < 500 nM | O=C(c1ccccc1)c1ccccc1N[C@@H](Cc1ccc(OCCCN(Cc2ccccc2)C(=O)C#Cc2ccccc2)cc1)C(=O)O [I_178, (S)-2-(2-Benzoylphenylamino)-3-(4-{3-[benzyl-(3-phenylpropynoyl)amino]-propoxy}phenyl)propionic acid]
AGONIST | < 500 nM | O=C(c1ccccc1)c1ccccc1N[C@@H](Cc1ccc(OCCCN(CC2CC2)C(=O)Cc2ccccc2)cc1)C(=O)O [I_262, (S)-2-(2-Benzoylphenylamino)-3-{4-[3-(cyclopropylmethylphenylacetylamino)propoxy]phenyl}propionic acid]
AGONIST | < 500 nM | O=C(c1ccccc1)c1ccccc1N[C@@H](Cc1ccc(OCCN(CC2CC2)C(=O)C=Cc2cccs2)cc1)C(=O)O [I_265, (S)-2-(2-Benzoylphenylamino)-3-(4-{2-[cyclopropylmethyl-(3-thiophen-2-ylacryloyl)amino]ethoxy}phenyl)-propionic acid]
– | < 500 nM | O=C(c1ccccc1)c1ccccc1N[C@@H](Cc1ccc(OCCCN(CC2CC2)C(=O)C2CCCC2)cc1)C(=O)O [I_280, (S)-2-(2-Benzoylphenylamino)-3-{4-[3-(cyclopentanecarbonylcyclopropylmethylamino)propoxy]phenyl}propionic acid]
– | < 500 nM | O=C(c1ccccc1)c1ccccc1N[C@@H](Cc1ccc(OCCN(C(=O)c2cc3ccccc3cn2)c2ccccc2)cc1)C(=O)O [I_303, (S)-2-(2-Benzoylphenylamino)-3-(4-{2-[(isoquinoline-3-carbonyl)-phenylamino]ethoxy}phenyl)propionic acid]
PARTIAL AGONIST | < 500 nM | CC(C)(C)N(CCOc1ccc(C[C@H](Nc2ccccc2C(=O)c2ccccc2)C(=O)O)cc1)C(=O)C1CCC1 [I_375, (S)-2-(2-Benzoylphenylamino)-3-{4-[2-(tert-butylcyclobutanecarbonylamino)-ethoxy]phenyl}propionic acid]
ANTAGONIST | < 500 nM | Cc1cccc(N(CCCOc2ccc(C[C@H](Nc3ccccc3C(=O)c3ccccc3)C(=O)O)cc2)CC(C)C)c1 [I_410, (S)-2-(2-Benzoylphenylamino)-3-(4-{3-[isobutyl-m-tolylamino]propoxy}-phenyl)propionic acid]
– | < 500 nM | Cc1ccccc1N(CCOc1ccc(C[C@H](Nc2ccccc2C(=O)c2ccccc2)C(=O)O)cc1)CC1CCC1 [I_412, (S)-2-(2-Benzoylphenylamino)-3-{4-[2-(cyclobutylmethyl-o-tolylamino)-ethoxy]phenyl}propionic acid]
– | < 500 nM | O=C(c1ccccc1)c1ccccc1N[C@@H](Cc1ccc(OCCN(Cc2cccs2)c2ccccc2)cc1)C(=O)O [I_467, (S)-2-(2-Benzoylphenylamino)-3-{4-[2-(phenylthiophen-2-ylmethylamino)-ethoxy]phenyl}propionic acid]
